Read-outs that look alike come from different tables or passages of the source.
Assays:
NCI-H358 cells = test: Anti-proliferation experiment of H358 cells (CellTiter-Glo); assay type: cell-based; conditions: Homo sapiens, 120 h, 5 days
Description: RPMI-1640 culture medium, penicillin/streptomycin antibiotics purchased from Wisent, and fetal bovine serum purchased from Biosera. CellTiter-Glo (chemiluminescence detection reagent for cell viability) reagent purchased from Promega. NCI-H358 cell line purchased from the Cell Bank of the Chinese Academy of Sciences. Nivo multi-label analyzer (PerkinElmer).
NCI-H358 cells were seeded in a white 96-well plate with 80 μL of cell suspension per well, which contained 4000 NCI-H358 cells. The cell plate was incubated overnight in a carbon dioxide incubator.
The compounds to be tested were diluted 3-fold with a row gun to the ninth concentration, that is, from 2 mM to 304 nM, and a double-duplication experiment was set up. 78 μL of culture medium was added to a middle plate, and then 2 μL of gradient diluted compound per well was transferred to the middle plate according to the corresponding position. After being thoroughly mixed, 20 μL per well was transferred to the cell plate. The concentration range of the compound transferred to the cell plate was 10 μM to 1.52 nM. The cell plate was placed in the carbon dioxide incubator for 5 days. Another cell plate was prepared, and the signal value was read as the maximum value (Max value in the equation below) on the day of administration to participate in data analysis. 25 μL of cell viability chemiluminescence detection reagent was added to each well of the cell plate, and incubated at room temperature for 10 minutes to stabilize the luminescence signal. A multi-label analyzer was used for reading.
25 μL of cell viability chemiluminescence detection reagent was added to each well of the cell plate, and incubated at room temperature for 10 minutes to stabilize the luminescence signal. A multi-label analyzer was used for reading.
Using the equation (Sample−Min)/(Max−Min)*100% to convert the raw data into inhibition rate, and the value of IC50 might be obtained by curve fitting with four parameters (obtained by “log (inhibitor) vs. response—Variable slope” mode in GraphPad Prism). Table 1 provides the inhibitory activity of the compounds of the present disclosure on the proliferation of NCI-H358 cells.

[1] = Pharmacokinetic study of female BALB/c nude mice (plasma and tumor); assay type: in vivo; conditions: for concentration at 1 h / concentration at 4 h / concentration at 8 h: oral, read-out: Mean drug concentration; for Kp: tumor/plasma, read-out: AUC ratio = tumor AUC0-last/plasma AUC0-last
Description: This experiment was a pharmacokinetic study of female BALB/c nude mice after oral administration of compound 1D. The experiment was divided into three groups, which were intragastrically administered with 1, 3 and 10 mg/kg of compound 1D, respectively. Animals in each group were divided into two batches, and plasma and tumor tissue samples were collected at different time points after administration. The collection time points of the plasma samples from each group of animals were: 0.083, 0.25, 0.5, 1, 2, 4, 6 and 8 hours, respectively, and the collection time points of tumor tissue samples were 1, 4 and 8 hours, respectively. At the corresponding sample collection time point after administration, plasma was collected, and tumor tissue was dissected and weighed. The plasma was stored at −80° C., and the tumor tissue was stored in a cryopreservation tube and quickly frozen in liquid nitrogen. Cross-collected plasma samples were used to calculate the mean concentration of the corresponding time points in each group for the calculation of PK parameters.

[2] = test system: human colon cancer CO-04-0070 subcutaneous xenograft tumor; test: In vivo pharmacodynamic study on human colon cancer CO-04-0070 subcutaneous xenograft tumor model; set-up: species or system BALB/c nude mouse; conditions: for Tumor volume (Day 0): Day 0 (at grouping); for Tumor volume (Day 0) / Tumor volume (Day 20) / Tumor weight (Day 20): mean ± SEM, n = 8; for RTV (Day 20) / T/C (%) (Day 20) / T/Cweight / TGI (%) (Day 20) / Tumor volume (Day 20) / Tumor weight (Day 20): Day 20
Description: To evaluate the in vivo efficacy of the compound in the human colon cancer CO-04-0070 subcutaneous xenograft tumor BALB/c nude mouse model.
Each animal was inoculated with a CO-04-0070 FP7 tumor block with a volume of about 30 mm^3 in the right back position. When the mean tumor volume reached 151 mm^3, random grouping was used and the administration was started.
Tumor diameters were measured with vernier calipers twice a week. The calculation formula of tumor volume was: V=0.5a×b^2, wherein a and b represented the long and short diameters of the tumor, respectively.
The anti-tumor efficacy of the compounds was evaluated by TGI (%) or relative tumor proliferation rate T/C (%). Relative tumor proliferation rate T/C (%)=TRTV/CRTV×100% (TRTV: mean RTV of the treatment group; CRTV: mean RTV of the negative control group). The relative tumor volume (RTV) was calculated according to the results of tumor measurement, and the calculation formula was RTV=Vt/V0, wherein V0 was the tumor volume measured at the time of group administration (that is, D0), Vt was the tumor volume at a certain measurement, and the data of TRTV and CRTV were taken on the same day. TGI (%), reflecting the tumor growth inhibition rate.
TGI (%)=[1−(mean tumor volume at the end of administration in a treatment group−mean tumor volume at the beginning of administration in the treatment group)/(mean tumor volume at the end of treatment in vehicle control group−mean tumor volume at the beginning of treatment in vehicle control group)]×100%.
After the experiment, the tumor weight would be detected, and the percentage of T/Cweight would be calculated. Tweight and Cweight represented the tumor weight of the administration group and the vehicle control group, respectively.

[3] = female, BALB/c nude, mouse, plasma, 1 mg/kg intragastric
[4] = female, BALB/c nude, mouse, plasma, 3 mg/kg intragastric
[5] = female, BALB/c nude, mouse, plasma, 10 mg/kg intragastric
[6] = female, BALB/c nude, mouse, tumor, 1 mg/kg intragastric
[7] = female, BALB/c nude, mouse, tumor, 3 mg/kg intragastric
[8] = female, BALB/c nude, mouse, tumor, 10 mg/kg intragastric
[9] = female, BALB/c nude, mouse, po, plasma, 1 mg/kg intragastric
[10] = female, BALB/c nude, mouse, po, plasma, 3 mg/kg intragastric
[11] = female, BALB/c nude, mouse, po, plasma, 10 mg/kg intragastric
[12] = female, BALB/c nude, mouse, po, tumor, 3 mg/kg intragastric
[13] = female, BALB/c nude, mouse, po, tumor, 10 mg/kg intragastric

IC50 (NCI-H358 cells): 0.917 nM
concentration at 1 h [1, 3]: 22.5 nM
concentration at 4 h [1, 3]: 3.58 nM
concentration at 8 h [1, 3]: 1.22 nM
concentration at 1 h [1, 4]: 157 nM
concentration at 4 h [1, 4]: 11.5 nM
concentration at 8 h [1, 4]: 4.13 nM
concentration at 1 h [1, 5]: 285 nM
concentration at 4 h [1, 5]: 54.8 nM
concentration at 8 h [1, 5]: 30.6 nM
concentration at 1 h [1, 6]: 10.4 nM
concentration at 4 h [1, 6]: 2.04 nM
concentration at 1 h [1, 7]: 136 nM
concentration at 4 h [1, 7]: 9.78 nM
concentration at 8 h [1, 7]: 2.78 nM
concentration at 1 h [1, 8]: 203 nM
concentration at 4 h [1, 8]: 37.9 nM
concentration at 8 h [1, 8]: 20.8 nM
AUC(0-t) [1, 9]: 0.0544 µM·h
Tmax [1, 9]: 0.25 h
half-life [1, 9]: 2.57 h
Cmax ([1]; female, BALB/c nude, mouse, po, plasma, 1 mg/kg intragastric, read-out: Cmax): 40.8 nM
AUC(0-t) [1, 10]: 0.287 µM·h
Tmax [1, 10]: 0.5 h
half-life [1, 10]: 2.2 h
Cmax ([1]; female, BALB/c nude, mouse, po, plasma, 3 mg/kg intragastric, read-out: Cmax): 191 nM
AUC(0-t) [1, 11]: 0.84 µM·h
Tmax [1, 11]: 0.25 h
half-life [1, 11]: 1.99 h
Cmax ([1]; female, BALB/c nude, mouse, po, plasma, 10 mg/kg intragastric, read-out: Cmax): 348 nM
Tmax [1, 12]: 1 h
half-life [1, 12]: 1.28 h
Tmax [1, 13]: 1 h
half-life [1, 13]: 2.19 h
Kp ([1]; female, BALB/c nude, mouse, po, 3 mg/kg intragastric): 0.815
Kp ([1]; female, BALB/c nude, mouse, po, 10 mg/kg intragastric): 0.608
Tlast ([1]; plasma, 1 mg/kg intragastric): 8.00 h
Tlast ([1]; plasma, 3 mg/kg intragastric): 8.00 h
Tlast ([1]; plasma, 10 mg/kg intragastric): 8.00 h
AUC0-last ([1]; tumor, 3 mg/kg intragastric): 234 nmol·h/kg
Cmax ([1]; tumor, 3 mg/kg intragastric): 136 nmol/kg
Tlast ([1]; tumor, 3 mg/kg intragastric): 8.00 h
AUC0-last ([1]; tumor, 10 mg/kg intragastric): 511 nmol·h/kg
Cmax ([1]; tumor, 10 mg/kg intragastric): 203 nmol/kg
Tlast ([1]; tumor, 10 mg/kg intragastric): 8.00 h
SMILES: C=CC(=O)N1CCN2c3c(c(=O)n(-c4c(C)ccnc4C(C)C)c4c(=O)n(-c5c(N)c(Cl)cc(Cl)c5F)c(C(F)(F)F)cc34)OCC[C@H]2C1 [Compound 1D]
Tumor volume (Day 0) ([2]; 3 mg/kg PO QD × 3 weeks): 151 mm^3
RTV (Day 20) ([2]; 3 mg/kg PO QD × 3 weeks): 5.32
T/C (%) (Day 20) ([2]; 3 mg/kg PO QD × 3 weeks): 58.0%
T/Cweight ([2]; 3 mg/kg PO QD × 3 weeks): 61.6%
TGI (%) (Day 20) ([2]; 3 mg/kg PO QD × 3 weeks): 45.4%
Tumor volume (Day 20) ([2]; 3 mg/kg PO QD × 3 weeks): 788 mm^3
Tumor weight (Day 20) ([2]; 3 mg/kg PO QD × 3 weeks): 0.832 ± 0.102 g
Tumor volume (Day 0) ([2]; 10 mg/kg PO QD × 3 weeks): 151 mm^3
RTV (Day 20) ([2]; 10 mg/kg PO QD × 3 weeks): 2.43
T/C (%) (Day 20) ([2]; 10 mg/kg PO QD × 3 weeks): 26.5%
T/Cweight ([2]; 10 mg/kg PO QD × 3 weeks): 30.1%
TGI (%) (Day 20) ([2]; 10 mg/kg PO QD × 3 weeks): 80.5%
Tumor volume (Day 20) ([2]; 10 mg/kg PO QD × 3 weeks): 379 mm^3
Tumor weight (Day 20) ([2]; 10 mg/kg PO QD × 3 weeks): 0.406 ± 0.095 g
Tumor volume (Day 0) ([2]; 30 mg/kg PO QD × 3 weeks): 151 mm^3
RTV (Day 20) ([2]; 30 mg/kg PO QD × 3 weeks): 1.02
T/C (%) (Day 20) ([2]; 30 mg/kg PO QD × 3 weeks): 11.1%
T/Cweight ([2]; 30 mg/kg PO QD × 3 weeks): 12.0%
TGI (%) (Day 20) ([2]; 30 mg/kg PO QD × 3 weeks): 99.9%
Tumor volume (Day 20) ([2]; 30 mg/kg PO QD × 3 weeks): 152 mm^3
Tumor weight (Day 20) ([2]; 30 mg/kg PO QD × 3 weeks): 0.162 ± 0.023 g
